# Laboratory results published in publication PMC11669939, “Impairing protein–protein interactions in an essential tRNA modification complex: An innovative antimicrobial strategy against Pseudomonas aeruginosa” (Journal of Peptide Science, 2024).
# Columns and labels:
# [1] = target: YeaZ protein from P. aeruginosa PAO1, recombinant His-tagged (P. aeruginosa PAO1); assay: SEC; analytical, Superdex75 Increase 10/300 GL, Hepes 50 mM pH 7.4, NaCl 500 mM, 10% glycerol; YeaZ 0.5 mg/ml (2% DMSO as control); peptide at 200 μM
# [2] = cited from earlier work
# Excerpt: P. aeruginosa (PAE) is a Gram‐negative bacterium that has been ranked by WHO as one out of three pathogens with the highest global priority for the development of novel effective antibacterials.[17] PAE is a major cause of both acute and chronic lung infections, which develop in up to 60%–70% of cystic fibrosis (CF) patients, often leading to a more rapid decline of lung function that turns into greater morbidity and mortality.[18], [19], [20] The misuse of classical antibiotics, whose mechanism of action is usually based on the interaction with a well‐defined ligand binding site, led to an ev ... || These observations supported our hypothesis that PMP1 should be able to bind to YeaZ and consequently reduce its ability to form protein complexes, thus impairing its function. […] Indeed, the PMP2 peptide derives from the PMP1 sequence RIAIGVVQGLAFAL (Arg73‐Leu86) and thus contains the four hot ...
# [3] = target: YeaZ; assay: Microscale thermophoresis (MST) assay; type: binding, Pseudomonas aeruginosa; conditions: 50 nM RED‐NHS labeled YeaZ, Hepes 50 mM pH 7.4, NaCl 500 mM, 10% glycerol, 0.05% Tween20, 24°C, 650 nm, triplicates; saturation plateau not reached, precise value not calculable
# Protocol: Microscale thermophoresis (MST) experiments were performed using a Monolith X apparatus (NanoTemper Technologies GmbH, Munich, Germany) and analyzed with the MO. Affinity Analysis software (NanoTemper Technologies GmbH). Briefly, YeaZ was labeled with the red fluorescent dye RED‐NHS 2° generation according to manufacturer instructions. MST measurements were performed in triplicates at 24°C on in Hepes 50 mM pH 7.4, NaCl 500 mM, 10% glycerol, and 0.05% Tween20, using premium‐treated glass capillaries and at a fixed concentration of 50 nM YeaZ. Results were merged and analyzed.
# (§1) PMP3 was then dissolved to 1mM in MilliQ water and evaluated in vitro in ITF assays. […] To further investigate the binding with PMP3, we performed a concentration‐response curve increasing the amounts of peptide. […] We thus performed an MST assay exploiting the perturbation of thermal diffusion at 650 nm plotted against the peptide concentration. The MO.
# [4] = system: YeaZ; assay: Intrinsic tryptophan fluorescence (ITF) binding assay; parameters: species or system Pseudomonas aeruginosa
# Protocol: (§2) Briefly, the YeaZ protein was produced in E. coli M15[pREP4] strain using a pQE30‐PaYeaZ plasmid. Cells were grown in LB medium at 37°C till the OD600 reached 0.6, then the protein expression was induced by isopropyl‐β‐D‐thiogalactoside (IPTG) at a final concentration of 0.1 mM for 5 h at 30°C. After cell collection, the pellet was resuspended in a lysis buffer containing 50 mM phosphate buffer, 150 mM NaCl, and 10 mM imidazole, pH 7.4. Cells were subsequently disrupted by a French press disruptor (20 bar pressure), and one tablet of protease inhibitor (Roche), 10 mg/ml DNase I, and 5 mg/ml Ribonuclease A were added to the solution. After centrifugation at 18,000 rpm for 45 min, the supernatant was collected, filtered, and loaded onto a Ni‐NTA Superflow (GE Healthcare Life Science). YeaZ was further purified using a Superdex 75 gel filtration column (GE Healthcare Life Science) in buffer 50 mM Hepes pH 7.4, 150 mM NaCl at a concentration of 0.5 mg/ml, in which freshly purified protein exists as a monomer in solution, and stored at −80°C.
# Spectrofluorometric assays were performed on a Varian Cary Eclipse fluorescence spectrophotometer (Agilent Technologies) at 20°C. YeaZ was used at a final concentration of 0.065 mg/ml in buffer Hepes 50 mM pH 7.4, NaCl 500 mM, 10% glycerol (with 2% v/v DMSO as control), while the peptides were used at a final concentration of 200 μM. We used an excitation wavelength of 280 nm and registered the fluorescence emission spectra between 300 and 400 nm. Measures were performed in triplicates.
# To evaluate the binding of PMP2 in vitro, the recombinant His‐tagged YeaZ protein from PAE PAO1 was produced in E. coli and purified with final purity and yield values adequate for the binding studies. Compound PMP2 was dissolved to 10mM with 100% DMSO and tested in in vitro assays at a final concentration of 200 μM (corresponding to a DMSO concentration of 2%). The interaction with the protein was first evaluated by exploiting the intrinsic fluorescence of the tryptophan residues (ITF) contained in the protein's amino acid sequence. […] Analytical size exclusion chromatography (SEC) was then run to evaluate the peptide's ability to disrupt or interfere with the formation of the homodimers. The YeaZ protein alone eluted at a volume corresponding mainly to its dimeric form (estimated molecular weight of 51 kDa of the main peak) and the effect of 2% v/v DMSO was irrelevant.
# as §1
# [5] = Circular dichroism analysis; type: physicochemical; conditions: 20 μM, 20°C
# Protocol: CD spectra were acquired on a JASCO J‐715 spectropolarimeter in a 1‐mm quartz cuvette, under N2, between 260 and 185 nm, at 20°C with 0.5 nm intervals, and 3 measurements were accumulated (settings: 100 mdeg sensitivity, continuous scan mode, 50 nm/min scan speed, 2 s response, bandwidth 1.0 nm). The resulting signal was converted from ellipticity (mdeg) to molar ellipticity [Q] in deg · cm^2 · dmol^−1. Peptides were solubilized in 100% MilliQ water or 1:1 water/TFE at 20 μM concentration. The helical propensity [R] was calculated using the R‐value, i.e. the ratio between molar ellipticity values at 222 and 207 nm, where R = 1 is defined as a reference for an ideal α‐helix.
# [6] = system: Escherichia coli K‐12 MG1655; assay: Bacterial growth inhibition assay, E. coli MG1655; type: cell-based; conditions: 3, 10, 30 μM; Mueller Hinton Broth, 37°C, OD595 every 15 min; mean of three independent experiments
# Protocol: (§3) Growth inhibition experiments were performed with P. aeruginosa PAO1 strain[37] and Escherichia coli K‐12 MG1655.[38] Cells were grown overnight in 10 ml of LB medium at 37°C with shaking. Overnight cultures were washed twice with phosphate‐buffered saline (PBS) and inoculated to an optical density at 595 nm (OD595) of 0.05 in 10 ml of Mueller Hinton Broth (Sigma‐Aldrich). Aliquots (200 μl) of inoculated medium were distributed in triplicate (technical replicates) in a 96‐Well Cellstar® suspension culture plate (Greiner Bio‐One) and incubated in a Sunrise microplate reader (Tecan Group) at 37°C with constant orbital shaking and real‐time OD595 measurements every 15 min. Three final peptide concentrations were tested: 3, 10, and 30 μM, respectively. Controls were made by adding sterilized water, in the same amount of the added peptide volumes. Three independent replicates were performed. Data were reported by plotting, at each time point, the mean OD595 values of the three replicates with error bars indicating Standard Error of Mean (SEM).
# [7] = system: P. aeruginosa PAO1; assay: Bacterial growth inhibition assay, P. aeruginosa PAO1; type: cell-based, Pseudomonas aeruginosa; conditions: 3, 10, 30 μM; Mueller Hinton Broth, 37°C, OD595 every 15 min; mean of three independent experiments
# Protocol: as §3
# [8] = Solubility, hydrophobicity and aggregation of the peptides; type: physicochemical
# [9] = system: YeaZ homodimer; assay: Analytical size exclusion chromatography (SEC); type: binding, Pseudomonas aeruginosa; conditions: peptide 200 μM, 2% DMSO, YeaZ 0.5 mg/ml
# Protocol: as §2, with “YeaZ was further purified using a Superdex 75 gel filtration column (GE Healthcare Life Science) in buffer 50 mM Hepes pH 7.4, 150 mM NaCl at a concentration of 0.5 mg/ml, in which freshly purified protein exists as a monomer in solution, and stored at −80°C.” left out
# To evaluate the binding of PMP2 in vitro, the recombinant His‐tagged YeaZ protein from PAE PAO1 was produced in E. coli and purified with final purity and yield values adequate for the binding studies. […] The interaction with the protein was first evaluated by exploiting the intrinsic fluorescence of the tryptophan residues (ITF) contained in the protein's amino acid sequence. […]
# [10] = previous work; cited from earlier work
# Excerpt: Since the PPIs and hot spots involved in the PAE YeaZ homodimer are conserved in the YeaZ/YgjD heterodimer,[21], [25], [26] we hypothesized that PMP1 might also represent a good starting point to target the YeaZ/YgjD interface. In this work, we report our studies focused on the PPIs involved in the formation of the TC‐complex and their possible inhibition by PMP1 derivatives. The final aim was the interference of t^6A37 biosynthesis and, consequently, the achievement of bacterial growth impairment.
substance,measurement,setting,value
"YeaZ protein from P. aeruginosa PAO1, recombinant His-tagged (from UniProt A0A0H2ZEW0 1-226) (natural protein)",stoichiometry N,[1],2
AIAIGVVQGLAFAL [PMP1],hydrophobicity,[2],too hydrophobic
AIAIGVVQGLAFAL‐GG‐[R‐Ahx‐R]4‐Ahx‐β‐Ala [PMP3],Kd (MST),[3],low micromolar
same,intrinsic fluorescence of the peptide,"[4]; above a concentration threshold, at 310–340 nm, prevented concentration‐response evaluation",higher than the intrinsic fluorescence of the YeaZ protein
same,fluorescence intensity of YeaZ in presence of peptide (ITF),"[4]; peptide 200 μM, from 1mM in MilliQ water, YeaZ 0.065 mg/ml, Hepes 50 mM pH 7.4, NaCl 500 mM, 10% glycerol, 20°C, excitation 280 nm, triplicates",reduction of the fluorescence intensity
same,"shift of emission towards shorter wavelengths (ITF), wavelength","[4]; peptide 200 μM, from 1mM in MilliQ water, YeaZ 0.065 mg/ml, pH 7.4, 20°C, slight shift",around 330 nm
same,secondary structure by CD,[5]; 1:1 water/TFE,a clear α‐helix conformation was observed
same,secondary structure by CD,[5]; 100% MilliQ water,did not show any particular secondary structure
same,helical propensity R,"[5]; ratio of molar ellipticity at 222 and 207 nm (R = 1 ideal α‐helix), 1:1 water/TFE",0.78
same,growth inhibition of E. coli MG1655,[6],much weaker than those observed for PAO1
same,growth inhibition of PAE PAO1,[7],significant concentration‐dependent decrease in the growth rates
AIAIGVVQGLAFAL‐GG‐KKKG [PMP2],solubility,"[8]; any tested solvent (H2O, 100% DMSO, 10 mM NaOH)",poor solubility
same,aggregation,"[8]; in solution at higher concentrations, prevented evaluation of a dose–response constant",formation of aggregates in solution at higher concentrations
same,estimated molecular weight of the YeaZ dimeric peak (SEC),"[9]; Hepes 50 mM pH 7.4, NaCl 500 mM, 10% glycerol, Superdex75 Increase 10/300, YeaZ alone 51 kDa",49 kDa
same,effect on the YeaZ dimeric peak (SEC),[9]; pH 7.4,slight shift of the dimeric peak towards a smaller molecular weight
same,fluorescence emission of YeaZ in presence of peptide (ITF),"[4]; peptide 200 μM, 2% DMSO, YeaZ 0.065 mg/ml, Hepes 50 mM pH 7.4, NaCl 500 mM, 10% glycerol, 20°C, excitation 280 nm, emission 300-400 nm, triplicates",decreased fluorescence emission spectrum compared to the protein alone
same,helicity outside the protein environment,[10],maintain helicity outside the protein environment
same,growth inhibition of E. coli MG1655,[6],no effect of growth inhibition could be observed
same,self‐assembly,[2]; by fine‐tuning of the environmental conditions,capable of self‐assembling in helical nanofibers and 2D sheets as well as forming hydrogels
same,growth inhibition of PAE PAO1,[7],no effect of growth inhibition could be observed
